Consider 20 molecules from patent US20240226115A1, “AXL INHIBITOR COMPOUNDS” (ARCUS BIOSCIENCES, INC., priority 2021, published 2024).

SMILES strings stand for the structures.

The target of the test is T1, Axl (Homo sapiens, UniProt P30530).
T1 sequence (P30530 26-894): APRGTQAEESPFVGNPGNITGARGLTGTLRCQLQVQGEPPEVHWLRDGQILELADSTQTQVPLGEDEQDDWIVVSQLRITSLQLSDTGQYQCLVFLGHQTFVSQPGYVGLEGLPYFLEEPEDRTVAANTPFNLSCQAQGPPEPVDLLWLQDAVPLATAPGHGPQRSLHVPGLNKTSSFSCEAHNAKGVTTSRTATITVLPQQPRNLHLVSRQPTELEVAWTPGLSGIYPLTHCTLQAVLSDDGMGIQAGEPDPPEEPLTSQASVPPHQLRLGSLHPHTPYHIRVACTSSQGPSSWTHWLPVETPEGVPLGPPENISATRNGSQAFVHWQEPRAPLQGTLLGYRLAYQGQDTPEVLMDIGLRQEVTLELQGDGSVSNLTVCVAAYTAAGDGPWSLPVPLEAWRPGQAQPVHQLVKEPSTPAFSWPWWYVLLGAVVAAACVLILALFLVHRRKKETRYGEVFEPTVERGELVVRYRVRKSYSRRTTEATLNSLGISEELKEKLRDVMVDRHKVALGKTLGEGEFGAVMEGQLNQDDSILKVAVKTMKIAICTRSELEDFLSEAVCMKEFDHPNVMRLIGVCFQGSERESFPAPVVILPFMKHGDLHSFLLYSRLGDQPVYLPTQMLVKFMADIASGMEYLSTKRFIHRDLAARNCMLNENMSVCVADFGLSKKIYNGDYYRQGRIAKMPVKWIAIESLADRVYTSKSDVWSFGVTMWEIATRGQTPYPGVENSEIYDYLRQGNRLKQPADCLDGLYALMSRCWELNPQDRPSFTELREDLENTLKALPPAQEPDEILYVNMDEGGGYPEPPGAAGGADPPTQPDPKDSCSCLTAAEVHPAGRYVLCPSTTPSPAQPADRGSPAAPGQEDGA
As to the kind of experiment: Axl NanoBRET intracellular kinase assay (Cell Binding). Also noted: host or cells: HEK-293. The note with it: HEK-293 cells transfected with Axl-NanoLuc fusion vector; displacement of K-5 NanoBRET tracer. As to the method: Axl NanoBRET™ intracellular kinase assay (Promega, N2540) was performed according to manufacturer's recommendation. In brief, HEK-293 cells are transiently transfected with Axl-NanoLuc fusion vector (Promega, NV1071), utilizing Fugene HD transfection reagent (Promega, E2311) a day before experiment following manufacturer's recommendation.
The day of the assay, the cells were collected and resuspended in Opti-MEM media (ThermoFisher, 31985070) at 2e5 cells/mL concentration. Testing compounds were serial diluted and dispensed into a white 384 well polystyrene plate at 200 nL in 100% DMSO. 40 μL of resuspended cells is then added per well for a final condition of 8K cells/well with 0.5% DMSO. After one-hour compound pre-incubation at 37° C. and 5% CO2, cells were further incubated with 0.35 μM K-5 NanoBRET tracer for two-hours at 37° C. and 5% CO2. […] of 3× substrate plus Inhibitor solution was prepared according to kits manual and added to the cells followed by a 30 second pulse centrifugation spin. The plate was then immediately read utilizing an Envision (Perkin Elmer) plate reader. The BRET signal is measured by taking the ratio of the emissions reading at 610 nm and 450 nm. Compound binding is based on the decrease BRET signal caused by the displacement of the K-5 tracer. […] IC50 value of compounds was determined by 4-parameter non-linear regression fitting of percent activity in GraphPad Prism software.
In general terms: Bioluminescence resonance energy transfer reports proximity on the nanometre scale.
For `O=C1NCCOc2cc(-c3n[nH]c4ncc(-c5ccc6c(c5)CCN(C5CCCC5)CC6)cc34)ccc21` [Example 7, 8-[5-(3-Cyclopentyl-2,3,4,5-tetrahydro-1H-3-benzazepin-7-yl)-1H-pyrazolo[3,4-b]pyridin-3-yl]-2,3,4,5-tetrahydro-1,4-benzoxazepin-5-one], the IC50 (as a rule, the midpoint of a concentration-inhibition curve) was less than 100 nM.

For `O=C1NCCOc2cc(-c3n[nH]c4ncc(-c5ccc6c(c5)CCN(C(=O)C5CC5)CC6)cc34)ccc21` [Example 17, 8-[5-(3-Cyclopropanecarbonyl-2,3,4,5-tetrahydro-1H-3-benzazepin-7-yl)-1H-pyrazolo[3,4-b]pyridin-3-yl]-2,3,4,5-tetrahydro-1,4-benzoxazepin-5-one], the IC50 was 100 to 1000 nM.

Turning to `O=C1NCCOc2cc(-c3n[nH]c4ncc(-c5ccc6c(c5)CCC(N[C@@H]5CCOC5)C6)cc34)ccc21` (stereo partly drawn) [Example 5, 8-[5-(6-{[(3R)—Oxolan-3-yl]amino}-5,6,7,8-tetrahydronaphthalen-2-yl)-1H-pyrazolo[3,4-b]pyridin-3-yl]-2,3,4,5-tetrahydro-1,4-benzoxazepin-5-one], the IC50 was less than 100 nM.

As for `CC1(O)CCCOc2cc(-c3n[nH]c4ncc(-c5ccc6c(c5)CCN(C5CCCC5)CC6)cc34)ccc21` (centres unmarked) [Example 28, (8-[5-(3-Cyclopentyl-2,3,4,5-tetrahydro-1H-3-benzazepin-7-yl)-1H-pyrazolo[3,4-b]pyridin-3-yl]-5-methyl-2,3,4,5-tetrahydro-1-benzoxepin-5-ol)], the IC50 was 100 to 1000 nM.

The molecule `O=C1NCCOc2cc(-c3n[nH]c4ncc(-c5ccc6c(c5)CCC(N5CCOCC5)CC6)cc34)ccc21` (centres unmarked) [Example 47, 8-{5-[7-(Morpholin-4-yl)-6,7,8,9-tetrahydro-5H-benzo[7]annulen-2-yl]-1H-pyrazolo[3,4-b]pyridin-3-yl}-2,3,4,5-tetrahydro-1,4-benzoxazepin-5-one] came in with an IC50 of less than 100 nM.

`C[C@H]1CCCN1C1Cc2ccc(-c3cnc4[nH]nc(-c5ccc6c(c5)OCC(C)(C)NC6=O)c4c3)cc2C1` (stereo partly drawn) [Example 39, 3,3-Dimethyl-8-(5-{2-[(2S)-2-methylpyrrolidin-1-yl]-2,3-dihydro-1H-inden-5-yl}-1H-pyrazolo[3,4-b]pyridin-3-yl)-2,3,4,5-tetrahydro-1,4-benzoxazepin-5-one] returned a half-inhibitory concentration (IC50) of less than 100 nM.

Regarding `C[C@@H]1CCCN1C1CCc2ccc(-c3cnc4[nH]nc(-c5ccc6c(c5)S(=O)(=O)NC6(C)C)c4c3)cc2CC1` (stereo partly drawn) [Example 33, 3,3-Dimethyl-6-(5-{7-[(2R)-2-methylpyrrolidin-1-yl]-6,7,8,9-tetrahydro-5H-benzo[7]annulen-2-yl}-1H-pyrazolo[3,4-b]pyridin-3-yl)-2,3-dihydro-1λ^6,2-benzothiazole-1,1-dione], the IC50 is less than 100 nM.

`Cc1cc2c(cc1-c1n[nH]c3ncc(-c4ccc5c(c4)CCC(N4CCC[C@H]4C)CC5)cc13)OCCNC2=O` (stereo partly drawn) [Example 40, 7-Methyl-8-(5-{7-[(2R)-2-methylpyrrolidin-1-yl]-6,7,8,9-tetrahydro-5H-benzo[7]annulen-2-yl}-1H-pyrazolo[3,4-b]pyridin-3-yl)-2,3,4,5-tetrahydro-1,4-benzoxazepin-5-one] gave an IC50 of less than 100 nM.

For `O=C1NCCOc2cc(-c3n[nH]c4ncc(-c5ccc6c(c5)CCC(N[C@H]5CCOC5)C6)cc34)ccc21` (stereo partly drawn) [Example 4, 8-[5-(6-{[(3S)—Oxolan-3-yl]amino}-5,6,7,8-tetrahydronaphthalen-2-yl)-1H-pyrazolo[3,4-b]pyridin-3-yl]-2,3,4,5-tetrahydro-1,4-benzoxazepin-5-one], the half-maximal inhibitory concentration (IC50) is less than 100 nM.

In turn, `O=C1NCCOc2cc(-c3n[nH]c4ncc(-c5ccc6c(c5)CCN(C5CC5)C6)cc34)ccc21` [Example 21, 8-(5-(2-Cyclopropyl-1,2,3,4-tetrahydroisoquinolin-6-yl)-1H-pyrazolo[3,4-b]pyridin-3-yl)-3,4-dihydrobenzo[f][1,4]oxazepin-5(2H)-one] gave an IC50 of 100 to 1000 nM.

`O=C1NCCOc2cc(-c3n[nH]c4ncc(-c5ccc6c(c5)CCC(N5CCNCC5)CC6)cc34)ccc21` (centres unmarked) [Example 48, 8-{5-[7-(Piperazin-1-yl)-6,7,8,9-tetrahydro-5H-benzo[7]annulen-2-yl]-1H-pyrazolo[3,4-b]pyridin-3-yl}-2,3,4,5-tetrahydro-1,4-benzoxazepin-5-one] displayed a 50% inhibitory concentration (IC50) of 100 to 1000 nM.

In turn, `CC1(C)NS(=O)(=O)c2cc(-c3n[nH]c4ncc(-c5ccc6c(c5)CCC(N5CCC[C@@H]5CO)CC6)cc34)ccc21` (stereo partly drawn) [Example 34, 6-(5-{7-[(2R)-2-(Hydroxymethyl)pyrrolidin-1-yl]-6,7,8,9-tetrahydro-5H-benzo[7]annulen-2-yl}-1H-pyrazolo[3,4-b]pyridin-3-yl)-3,3-dimethyl-2,3-dihydro-1λ^6,2-benzothiazole-1,1-dione] yielded a half-inhibitory concentration (IC50) of less than 100 nM.

Molecule `O=C1NCCOc2cc(-c3n[nH]c4ncc(-c5ccc6c(c5)CCC(N[C@@H]5CCOC5)CC6)cc34)ccc21` (stereo partly drawn) [Example 46, 8-[5-(7-{[(3R)—Oxolan-3-yl]amino}-6,7,8,9-tetrahydro-5H-benzo[7]annulen-2-yl)-1H-pyrazolo[3,4-b]pyridin-3-yl]-2,3,4,5-tetrahydro-1,4-benzoxazepin-5-one] showed a half-inhibitory concentration (IC50) of less than 100 nM.

The molecule `C[C@@H]1CCCN1C1CCc2ccc(-c3cnc4[nH]nc(-c5ccc6c(c5)C(=O)NC6(C)C)c4c3)cc2CC1` (stereo partly drawn) [Example 38, 3,3-Dimethyl-6-(5-{7-[(2R)-2-methylpyrrolidin-1-yl]-6,7,8,9-tetrahydro-5H-benzo[7]annulen-2-yl}-1H-pyrazolo[3,4-b]pyridin-3-yl)-2,3-dihydro-1H-isoindol-1-one] showed an IC50 of less than 100 nM.

As for `Cc1c(-c2n[nH]c3ncc(-c4ccc5c(c4)CCC(N4CCC[C@H]4C)CC5)cc23)ccc2c1OCCNC2=O` (stereo partly drawn) [Example 41, 9-Methyl-8-(5-{7-[(2R)-2-methylpyrrolidin-1-yl]-6,7,8,9-tetrahydro-5H-benzo[7]annulen-2-yl}-1H-pyrazolo[3,4-b]pyridin-3-yl)-2,3,4,5-tetrahydro-1,4-benzoxazepin-5-one], the concentration for half-maximal inhibition (IC50) is less than 100 nM.

In turn, `C[C@@H]1CCCN1C1CCc2ccc(-c3cnc4[nH]nc(-c5ccc6c(c5)OCCNS6(=O)=O)c4c3)cc2CC1` (stereo partly drawn) [Example 66, 7-(5-{7-[(2R)-2-Methylpyrrolidin-1-yl]-6,7,8,9-tetrahydro-5H-benzo[7]annulen-2-yl}-1H-pyrazolo[3,4-b]pyridin-3-yl)-3,4-dihydro-2H-5,12,2-benzoxathiazepine-1,1-dione] came in with a concentration for half-maximal inhibition (IC50) of less than 100 nM.

In the case of `C[C@@H]1CCCN1C1CCc2ccc(-c3cnc4[nH]nc(-c5ccc6c(c5)O[C@@H](C)CNC6=O)c4c3)cc2CC1` (stereo partly drawn) [Example 62, (2S)-2-Methyl-8-(5-{7-[(2R)-2-methylpyrrolidin-1-yl]-6,7,8,9-tetrahydro-5H-benzo[7]annulen-2-yl}-1H-pyrazolo[3,4-b]pyridin-3-yl)-2,3,4,5-tetrahydro-1,4-benzoxazepin-5-one], the half-maximal inhibitory concentration (IC50) was less than 100 nM.

Molecule `C[C@@H]1CNC(=O)c2ccc(-c3n[nH]c4ncc(-c5ccc6c(c5)CCC(N5CCC[C@H]5C)CC6)cc34)cc2O1` (stereo partly drawn) [Example 59, (2R)-2-Methyl-8-(5-{7-[(2R)-2-methylpyrrolidin-1-yl]-6,7,8,9-tetrahydro-5H-benzo[7]annulen-2-yl}-1H-pyrazolo[3,4-b]pyridin-3-yl)-2,3,4,5-tetrahydro-1,4-benzoxazepin-5-one] yielded a concentration for half-maximal inhibition (IC50) of less than 100 nM.

In the case of `COCCN1CCc2cc(-c3cnc4[nH]nc(-c5ccc6c(c5)OCCNC6=O)c4c3)ccc2C1` [Example 13, 8-(5-(2-(2-Methoxyethyl)-1,2,3,4-tetrahydroisoquinolin-6-yl)-1H-pyrazolo[3,4-b]pyridin-3-yl)-3,4-dihydrobenzo[f][1,4]oxazepin-5(2H)-one], the concentration for half-maximal inhibition (IC50) lay in the range of 100 to 1000 nM.

Turning to `O=C1NCCOc2cc(-c3n[nH]c4ncc(-c5ccc6c(c5)CCC(N5CCCC5)CC6)cc34)ccc21` (racemic) [Example 1, 8-{5-[7-(Pyrrolidin-1-yl)-6,7,8,9-tetrahydro-5H-benzo[7]annulen-2-yl]-1H-pyrazolo[3,4-b]pyridin-3-yl}-2,3,4,5-tetrahydro-1,4-benzoxazepin-5-one], the 50% inhibitory concentration (IC50) is less than 100 nM.
